In ChEMBL document CHEMBL3526031, “Mechanistic studies on the absorption and disposition of scutellarin in humans: selective OATP2B1-mediated hepatic uptake is a likely key determinant for its unique pharmacokinetic characteristics” (Drug Metab Dispos, 2012):

Experiments:
[1] = Drug metabolism in human intestinal microsomes assessed as formation of scutellarein-6,7-diglucuronide after 7 mins by HPLC/UV analysis; format: ADME, Intestine, Microsome; details: for Km / Vmax: human, microsomes, 7 min
OATP2B1 = target: T1, OATP2B1 (Homo sapiens, UniProt O94956); test: (§1) Drug uptake assessed as OATP2B1 (unknown origin)-mediated drug transport expressed in HEK293 cells after 7 mins by LC-MS/MS analysis; format: ADME, cell-based; details: human, HEK293 cells expressing OATP2B1
T1 sequence (O94956 whole entry): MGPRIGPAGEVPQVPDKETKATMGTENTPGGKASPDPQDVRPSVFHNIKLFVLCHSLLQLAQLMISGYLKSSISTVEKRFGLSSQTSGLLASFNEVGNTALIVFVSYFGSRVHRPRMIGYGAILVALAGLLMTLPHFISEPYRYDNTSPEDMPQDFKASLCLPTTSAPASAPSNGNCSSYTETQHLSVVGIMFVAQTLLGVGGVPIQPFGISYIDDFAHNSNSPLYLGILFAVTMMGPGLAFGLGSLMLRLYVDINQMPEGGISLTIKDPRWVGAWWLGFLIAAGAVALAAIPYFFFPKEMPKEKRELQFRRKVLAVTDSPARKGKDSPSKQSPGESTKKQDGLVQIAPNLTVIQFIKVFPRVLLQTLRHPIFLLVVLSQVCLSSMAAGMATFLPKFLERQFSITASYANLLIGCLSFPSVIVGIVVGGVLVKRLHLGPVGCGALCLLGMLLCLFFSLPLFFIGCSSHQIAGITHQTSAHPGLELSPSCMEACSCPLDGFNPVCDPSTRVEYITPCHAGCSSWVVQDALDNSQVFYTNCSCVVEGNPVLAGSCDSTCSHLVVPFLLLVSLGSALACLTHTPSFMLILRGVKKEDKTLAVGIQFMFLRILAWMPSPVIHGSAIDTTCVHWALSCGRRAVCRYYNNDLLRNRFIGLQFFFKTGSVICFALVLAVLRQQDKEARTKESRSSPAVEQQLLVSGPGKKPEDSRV

[2] = target: T2, Solute carrier organic anion transporter family member 2B1 (Homo sapiens, UniProt O94956); test: as §1; format: ADME, cell-based
T2 sequence (O94956 whole entry): T1 sequence (O94956 whole entry)

[3] = target: T2, Solute carrier organic anion transporter family member 2B1; test: Ratio of Vmax to Km for drug uptake assessed as OATP2B1 (unknown origin)-mediated drug transport expressed in HEK293 cells by LC-MS/MS analysis; format: ADME, cell-based
[4] = Drug metabolism in rat intestinal microsomes assessed as formation of scutellarein-6,7-diglucuronide after 7 mins by HPLC/UV analysis; format: ADME, Intestine, Microsome; details: for Km / Vmax: rat, microsomes, 7 min
[5] = Cmax in human at 60 mg, po; format: ADME, organism-based; design: dose 60 mg, route oral; details: in vivo
Homo sapiens [6] = test: Drug metabolism in human assessed as retention time of parent compound at 40 mg, po up to 20 hrs by mass defect filter chromatogram analysis; format: ADME, organism-based; details: in vivo
[7] = target: Multidrug resistance-associated protein 1 (Homo sapiens, UniProt P33527); test: Inhibition of human MRP1-mediated estradiol-17beta-D-glucuronide formation using inside-out membrane vesicles by LC-MS/MS analysis
Homo sapiens [8] = test: Drug level in human assessed as retention time treated with 40 mg, po of scutellarin measured up to 20 hrs by mass defect filter chromatogram analysis; format: ADME, organism-based
[9] = target: T3, UDP-glucuronosyltransferase 1A8 (Homo sapiens, UniProt Q9HAW9); test: Drug metabolism assessed as human recombinant UGT1A8-mediated formation of scutellarein-6,7-diglucuronide after 25 mins by HPLC/UV analysis; format: ADME; details: recombinant enzyme
T3 sequence (Q9HAW9 whole entry): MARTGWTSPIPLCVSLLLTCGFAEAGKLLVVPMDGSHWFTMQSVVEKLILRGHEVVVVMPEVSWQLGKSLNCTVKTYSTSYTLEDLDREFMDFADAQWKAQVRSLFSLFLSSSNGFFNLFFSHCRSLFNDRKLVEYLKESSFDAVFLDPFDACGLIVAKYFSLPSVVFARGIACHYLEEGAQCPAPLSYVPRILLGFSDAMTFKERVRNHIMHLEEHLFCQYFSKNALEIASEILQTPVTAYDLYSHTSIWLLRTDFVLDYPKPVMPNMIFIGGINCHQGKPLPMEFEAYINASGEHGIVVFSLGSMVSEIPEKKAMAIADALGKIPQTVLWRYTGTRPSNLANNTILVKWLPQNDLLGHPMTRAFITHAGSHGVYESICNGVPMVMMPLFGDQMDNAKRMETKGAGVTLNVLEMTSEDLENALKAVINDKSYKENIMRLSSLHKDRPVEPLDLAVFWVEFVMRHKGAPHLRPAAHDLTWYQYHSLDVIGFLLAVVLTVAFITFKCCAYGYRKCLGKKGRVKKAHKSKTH

[10] = target: T3, UDP-glucuronosyltransferase 1A8; test: Ratio of Vmax to Km for drug metabolism assessed as human recombinant UGT1A8-mediated formation of scutellarein-6,7-diglucuronide after 25 mins by HPLC/UV analysis; format: ADME; details: recombinant enzyme
[11] = target: T4, UDP-glucuronosyltransferase 1A10 (Homo sapiens, UniProt Q9HAW8); test: Ratio of Vmax to Km for drug metabolism assessed as human recombinant UGT1A10-mediated formation of scutellarein-6,7-diglucuronide after 25 mins by HPLC/UV analysis; format: ADME; details: recombinant enzyme
T4 sequence (Q9HAW8 whole entry): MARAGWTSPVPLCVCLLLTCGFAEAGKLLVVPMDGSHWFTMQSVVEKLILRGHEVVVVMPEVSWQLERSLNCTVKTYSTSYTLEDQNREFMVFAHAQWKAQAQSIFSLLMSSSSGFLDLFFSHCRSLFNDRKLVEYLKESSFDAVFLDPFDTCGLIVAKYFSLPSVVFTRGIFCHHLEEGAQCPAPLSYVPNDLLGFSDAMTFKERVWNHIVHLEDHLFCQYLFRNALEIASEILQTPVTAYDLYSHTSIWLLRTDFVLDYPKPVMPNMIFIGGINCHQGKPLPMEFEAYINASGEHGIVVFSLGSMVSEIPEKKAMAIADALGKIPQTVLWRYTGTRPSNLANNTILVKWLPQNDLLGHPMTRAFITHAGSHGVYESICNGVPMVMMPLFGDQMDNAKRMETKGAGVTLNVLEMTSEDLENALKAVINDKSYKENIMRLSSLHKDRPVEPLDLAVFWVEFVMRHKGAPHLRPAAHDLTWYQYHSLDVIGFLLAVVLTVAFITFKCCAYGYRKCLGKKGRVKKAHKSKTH

Chain of Multidrug resistance-associated protein 1 (P33527 whole entry): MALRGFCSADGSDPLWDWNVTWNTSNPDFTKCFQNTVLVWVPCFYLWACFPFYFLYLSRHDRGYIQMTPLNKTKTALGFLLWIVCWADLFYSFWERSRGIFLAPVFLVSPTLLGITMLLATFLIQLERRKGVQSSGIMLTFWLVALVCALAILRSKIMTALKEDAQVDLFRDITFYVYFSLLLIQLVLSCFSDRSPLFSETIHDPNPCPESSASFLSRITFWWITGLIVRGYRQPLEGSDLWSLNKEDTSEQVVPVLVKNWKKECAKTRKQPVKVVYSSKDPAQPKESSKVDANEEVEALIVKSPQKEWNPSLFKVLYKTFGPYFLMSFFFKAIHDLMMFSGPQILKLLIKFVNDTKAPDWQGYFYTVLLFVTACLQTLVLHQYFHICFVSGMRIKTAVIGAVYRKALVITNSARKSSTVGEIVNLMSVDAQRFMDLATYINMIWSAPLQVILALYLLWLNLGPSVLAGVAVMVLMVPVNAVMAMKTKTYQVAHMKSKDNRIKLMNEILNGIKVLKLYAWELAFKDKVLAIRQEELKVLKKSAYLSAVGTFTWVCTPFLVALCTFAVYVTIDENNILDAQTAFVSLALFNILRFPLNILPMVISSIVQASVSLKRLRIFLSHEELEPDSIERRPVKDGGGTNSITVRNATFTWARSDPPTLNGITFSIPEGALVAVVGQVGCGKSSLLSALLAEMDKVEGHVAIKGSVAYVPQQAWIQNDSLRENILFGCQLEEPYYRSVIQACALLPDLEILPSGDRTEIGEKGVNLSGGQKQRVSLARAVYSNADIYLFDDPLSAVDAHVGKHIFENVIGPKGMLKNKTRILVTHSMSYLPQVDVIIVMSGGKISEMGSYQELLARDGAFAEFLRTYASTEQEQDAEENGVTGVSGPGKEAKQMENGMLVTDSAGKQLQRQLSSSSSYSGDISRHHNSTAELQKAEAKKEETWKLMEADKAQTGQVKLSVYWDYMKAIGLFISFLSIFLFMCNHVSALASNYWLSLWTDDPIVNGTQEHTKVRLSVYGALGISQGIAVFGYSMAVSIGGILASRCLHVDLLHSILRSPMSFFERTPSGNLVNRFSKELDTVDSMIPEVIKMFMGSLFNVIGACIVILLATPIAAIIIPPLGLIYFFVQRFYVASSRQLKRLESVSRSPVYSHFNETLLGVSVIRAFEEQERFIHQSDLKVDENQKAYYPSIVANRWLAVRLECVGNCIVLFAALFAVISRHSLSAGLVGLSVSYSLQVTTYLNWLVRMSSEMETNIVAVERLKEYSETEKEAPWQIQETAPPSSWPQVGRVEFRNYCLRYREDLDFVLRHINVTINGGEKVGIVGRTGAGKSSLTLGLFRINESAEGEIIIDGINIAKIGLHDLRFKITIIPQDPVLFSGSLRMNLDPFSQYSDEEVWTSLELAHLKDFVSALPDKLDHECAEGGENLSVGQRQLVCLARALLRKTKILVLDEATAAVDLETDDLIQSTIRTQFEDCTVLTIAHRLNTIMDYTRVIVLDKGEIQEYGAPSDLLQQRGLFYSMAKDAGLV

| Retention_time (Homo sapiens [8]) [min] | Vmax [9] [nmol/min/mg] | Vmax/Km [10] [µL/min/mg] | Vmax/Km [11] [µL/min/mg] | Structure (SMILES) | Ki [1] [µM] | Km [1] [µM] | Vmax [1] [nmol/min/mg] | Km at 7 min (OATP2B1) [µM] | Ki [2] [µM] | Vmax ([2]; human, hek293, 7 min) [pmol/min/mg] | Vmax/Km [3] [µL/min/mg] | Ki [4] [µM] | Km [4] [µM] | Vmax [4] [nmol/min/mg] | Cmax [5] [nM] | Retention_time (Homo sapiens [6]) [min] | inhibition (INH) [7] |
| --- | --- | --- | --- | --- | --- | --- | --- | --- | --- | --- | --- | --- | --- | --- | --- | --- | --- |
|  |  |  |  | O=C(O)[C@H]1O[C@@H](Oc2cc3oc(-c4ccc(O)cc4)cc(=O)c3c(O)c2O)[C@H](O)[C@@H](O)[C@@H]1O [SCUTELLARIN] | 59.5 | 643 | 11.9 | 43 | 25.9 | 113 | 11.1 | 79 | 349 | 6.6 | < 4 | 7.93 | Active |
| 9.19 | 0.465 | 7.96 | 2.84 | O=C(O)[C@H]1O[C@@H](Oc2c(O)cc3oc(-c4ccc(O)cc4)cc(=O)c3c2O)[C@H](O)[C@@H](O)[C@@H]1O | 11.8 | 156 | 17.1 |  |  |  |  | 79.2 | 41.1 | 1.23 |  |  | Active |
